Laboratory results: article PMC5533769, “A cell-based high-throughput screening assay system for inhibitor compounds of antigen presentation by HLA class II molecule” (Scientific Reports, 2017)
“Also recorded” adds a separate entry of the source. Read-outs that look alike come from different tables or passages of the source.

Assays:
[1] = biological target: T1, HLA-DR1 (DRA*01:01/DRB1*01:01) (Homo sapiens, UniProt P01903+P01911, A100R/D57E/F55L/F60I/F76Y/I96L/L162R/M171V/P40L/Q125E/R42F/V115G/Y59C); assay: FACS binding of biotinylated peptide to HLA-DR1 on HEK293T cells; conditions: SA-PE, biotinylated peptide 30 µM, >5 h, 3 to 6 independent experiments
[2] = system: HLA-DR (DRB1*01:01, DRB1*04:05, DRB1*09:01, DRB1*15:01); assay: FACS binding of biotinylated peptide to panel of HLA-DR on HEK293T cells; set-up: species or system human; conditions: FACS, SA-PE; […]; biotinylated peptide 30 µM, >5 h
[3] = biological target: T1, HLA-DR1 (DRA*01:01/DRB1*01:01); assay: FACS binding of biotinylated peptide to HLA-DR1 on stable 3T3 cells; conditions: SA-PE, stable 3T3, DRA*01:01 + DRB1*01:01, biotinylated peptide 30 µM overnight
[4] = system: HLA-DR (DRB1*01:01, DRB1*04:05, DRB1*09:01, DRB1*15:01); assay: FACS binding of biotinylated peptide to panel of HLA-DR on stable 3T3 cells; set-up: species or system human; conditions: Supplemental Fig. 1 vs. Supplemental Fig. 2
parental 3T3 cells [5] = assay: FACS binding of biotinylated peptide to parental 3T3 cells; set-up: species or system murine; conditions: SA-PE, parental 3T3, no HLA-DR, biotinylated peptide 30 µM overnight
DR1 (DRB1*01:01) [6] = biological target: T2, DR1 (DRB1*01:01) (Homo sapiens, UniProt P01903+P01911, A100R/D57E/F55L/F60I/F76Y/I96L/L162R/M171V/P40L/Q125E/R42F/V115G/Y59C); assay: 96-well plate peptide binding assay, DR1-expressing 3T3 cells, SA-β-gal/4MUG; conditions: for Kd: live DR1-expressing 3T3, 96-well, 4MUG, parental binding subtracted
T2 construct: The open reading frame for DRA or DRB1 were flanked with Xho 1 and EcoR1 sites; expressed in transfected cells

parental 3T3 cells [7] = assay: 96-well plate peptide binding assay, parental 3T3 cells, SA-β-gal/4MUG; set-up: species or system murine; conditions: SA-β-gal 3,000-fold
[8] = system: DRB1 molecules (almost all genotypes); conditions: ref [25]; cited from earlier work
[9] = biological target: HLA-DR4 (DRA*01:01/DRB1*04:05) (Homo sapiens, UniProt P01903+P01911, A100R/A169T/D86S/F76Y/I96L/K127E/L162R/M171V/N62H/P40V/Q125Y/R42H/S133A/S149N/S66Y/V115G/V209L/W38E); assay: FACS binding of biotinylated peptide to HLA-DR4 on HEK293T cells
[10] = system: HEK293T cells (non-transfected); format: binding; conditions: FACS, SA-PE, biotinylated peptide 30 µM, >5 h
DR4 (DRB1*04:05) = DR4 (DRB1*04:05) (Homo sapiens, UniProt P01903+P01911, A100R/A169T/D86S/F76Y/I96L/K127E/L162R/M171V/N62H/P40V/Q125Y/R42H/S133A/S149N/S66Y/V115G/V209L/W38E); conditions: ref [24]; cited from earlier work
Experimental: To determine the genotype specificity and relative affinity of known epitope peptides, MBP83-99 and BiP336-355 peptide loading assays were performed on cells expressing DRA*01:01 plus various HLA-DRB1 (Supplemental Fig. 1A). […] However, the extent of peptide loading, which is evaluated by the mean fluorescence intensity (MFI), was the highes ...

DR15 (DRB1*15:01) [11] = biological target: T3, DR15 (DRB1*15:01) (Homo sapiens, UniProt P01903+P01911); assay: 96-well plate peptide binding assay, DR15-expressing 3T3 cells, SA-β-gal/4MUG; conditions: parental vs. DR15-expressing 3T3 cells; MBP83-99 5 µM
T3 construct: The open reading frame for DRA or DRB1 were flanked with Xho 1 and EcoR1 sites; expressed in transfected cells
Experimental: (§1) Figure 3 Detection and screening system of antigen peptide binding to HLA on 3T3 cells in 96 well plate. (A) Scheme of the detection of HLA-bound peptides on cells in 96 well plates. HLA expressing cells are incubated with biotinylated antigen peptides, and bound peptides are probed with SA-β-gal, followed by enzyme reaction with chromogenic (ONPG) or fluorogenic substrate (4MUG). (B) Detection of HLA-bound peptides on 3T3 cells using fluorogenic substrate (4MUG) in 96 well plates. Two 96-well plates of DR15-expressing cells were incubated with MBP83-99 for 6 h, fixed with glutaraldehyde, and subjected to blocking with a blocking solution as detailed in the methods section. Thereafter, biotinylated peptides in one plate were probed with low concentration of SA-β-gal (3,000-fold dilution) and detected by using 4MUG. The other plate was analysed using a chromogenic substrate (ONPG) in Supplementary Fig. 3. (C) Time and concentration dependence of MBP83-99 binding to DR15-expressing 3T3 cells. The assay was conducted as in (B).
(§2) Unless otherwise described, the assay was conducted as follows. […] The reaction was stopped by addition of 100 µL of 0.5 M Na2CO3, and fluorescence intensity (Ex: 365 nm, Em: 450 nm) was measured by using a plate reader (Spectra Max plus, Molecular Devices, Sunnyvale, CA, USA). Wells devoid of cells and incubation with biotinylated peptide, but otherwise treated by using the same experimental procedure, were set as blank, and the mean fluorescence value for the wells was subtracted. The apparent Kd values for the binding of MBP83-99 and DR1 (DRB1*01:01) or DR15 (DRB1*15:01) was calculated by double reciprocal plot (1/[P-HLA] = Kd/[HLA]total [P] + 1/[HLA]total; where P represents peptide) or Scatchard plot ([P-HLA]/[P] = [HLA]total/Kd − [P-HLA]/Kd) after subtracting values for HLA-independent peptide binding (parental 3T3 cells) from the respective cells in a peptide concentration dependency experiment. […]

DR15 (DRB1*15:01) [12] = biological target: T4, DR15 (DRB1*15:01) (Homo sapiens, UniProt P01903+P01911, OTHER:DRA*01:01ANDEACHDRB1VECTORSWEREINTRODUCEDINTOTHECELLSAT1:1RATIO/OTHER:MBP83-99TODR15(DRB1*15:01)); assay: as above; conditions: live DR15-expressing 3T3, 96-well, 4MUG, 8-h incubation, parental binding subtracted
T4 construct: The open reading frame for DRA or DRB1 were flanked with Xho 1 and EcoR1 sites; expressed in transfected cells
Experimental: as §1, §2

DR15 (DRB1*15:01) [13] = biological target: T3, DR15 (DRB1*15:01); assay: 96-well competition assay: inhibition of MBP83-99 loading to DR15-expressing 3T3 cells; format: binding; conditions: DR15-expressing 3T3; 1 h pre-incubation, then MBP83-99 6 h; 4MUG
DR1 (DRB1*01:01) [14] = biological target: T2, DR1 (DRB1*01:01); assay: 96-well competition assay: inhibition of MBP83-99 loading to DR1-expressing 3T3 cells; format: binding; conditions: DR1-expressing 3T3; 1 h pre-incubation, then MBP83-99 (5 µM) 6 h; 4MUG

## ACPKYVKQNTLKLATG [HA305-320, influenza hemagglutinin (HA) 305–320, biotinylated influenza hemagglutinin peptide]
[1]
  Peptide binding (MFI), HLA-DR1: the highest level
[2]
  Peptide binding across HLA-DR genotypes: did increase in any genotypes of DRB1-expressing cells
[3]
  Peptide binding, DR1 on 3T3: increased in cells expressing HLA, especially DR1; also recorded: could be loaded onto HLA to a sufficient level
[4]
  Binding intensity in 3T3 compared with HEK293T cells: far less than those in HEK293T cells
Parental 3T3 cells [5]
  Peptide binding to parental 3T3 cells (HLA-independent): significant degree of apparent binding; also recorded: bound to the cell surface independently of HLA, especially avidly in 3T3 cells
DR1 (DRB1*01:01) [6]
  Peptide binding to parental 3T3 cells, 96-well, and after maximum: gradually decreased
DR1 (DRB1*01:01) [6]; […], HA305-320, obtained at 8 h
  HLA-independent binding share of entire signal, DR1 cells: exceeded 80%
DR1 (DRB1*01:01) [6]; […], then gradually decreased
  Time to maximum binding, DR1: 8 h
DR1 (DRB1*01:01) [6]; cell-based 96-well assay, […]
  Time to almost plateau loading (Discussion): ~8 h
Parental 3T3 cells [7]
  Peptide loading, parental 3T3, 96-well: a significant amount of HA305-320 binding was observed in the parental cells
[8]
  Binding to DRB1 genotypes: bind to almost all genotypes of DRB1 molecules; also recorded: binds to every genotype of HLA-DRs

## RSTMKPVQKVLEDSDLKKSD [BiP336-355, immunoglobulin binding protein (BiP) 336–355, biotinylated self-antigen peptide of BiP]
[9]; HEK293T, DRB1*04:05, incubation extended to 20 h, data not shown
  Peptide binding (MFI), HLA-DR4, extended incubation: could not observe a further increase
[9]; SA-PE, HEK293T transiently expressing DRA*01:01 + DRB1*04:05, biotinylated peptide 30 µM, >5 h
  Peptide binding (MFI), HLA-DR4: could bind to DR4-expressing HEK293T cells, although very slightly
[2]
  Peptide binding across HLA-DR genotypes: not to other DR-expressing cells
[10]
  Peptide binding to control cells: No loading of either peptide was observed
DR4 (DRB1*04:05)
  Presentation by DR4: self-antigen presented by DR4 (DRB1*04:05)

## CC[C@H](C)[C@H](NC(=O)[C@H](CC(N)=O)NC(=O)[C@H](CCCCN)NC(=O)[C@H](Cc1ccccc1)NC(=O)[C@H](Cc1ccccc1)NC(=O)[C@H](Cc1c[nH]cn1)NC(=O)[C@@H](NC(=O)[C@@H](NC(=O)[C@@H]1CCCN1C(=O)[C@H](CC(N)=O)NC(=O)[C@@H](N)CCC(=O)O)C(C)C)C(C)C)C(=O)N[C@H](C(=O)N[C@H](C(=O)N1CCC[C@H]1C(=O)N[C@@H](CCCNC(=N)N)C(=O)N[C@H](C(=O)N1CCC[C@H]1C(=O)O)[C@@H](C)O)[C@@H](C)O)C(C)C [MBP83-99, myelin basic protein (MBP) 83–99]
DR15 (DRB1*15:01) [11]
  HLA-independent binding share of apparent signal, DR15 cells: < 10%
DR15 (DRB1*15:01) [12]; Scatchard plot, R² = 0.8781, read-out: apparent Kd, DR15, Scatchard plot
  Kd: 3 µM
DR15 (DRB1*15:01) [12]; double reciprocal plot, R² = 0.9378, read-out: apparent Kd, DR15, double reciprocal plot
  Kd: 2 µM
DR1 (DRB1*01:01) [6]; Scatchard plot, R² = 0.8216, read-out: apparent Kd, DR1, Scatchard plot
  Kd: 14 µM
DR1 (DRB1*01:01) [6]; double reciprocal plot, R² = 0.99, read-out: apparent Kd, DR1, double reciprocal plot
  Kd: 10 µM
DR1 (DRB1*01:01) [6]; parental vs. DR1-expressing 3T3 cells, MBP83-99 5 µM
  HLA-independent binding share of apparent signal, DR1 cells: < 30%

## LMAKARQKVLMPSTMLP [scCLIP, scramble peptide (scCLIP), scramble version of the CLIP peptide]
DR15 (DRB1*15:01) [13]
  Inhibitory effect on MBP83-99 loading, DR15: no inhibitory effect
DR1 (DRB1*01:01) [14]
  Inhibitory effect on MBP83-99 loading, DR1: no inhibitory effect
